This is an account of results in ChEMBL document CHEMBL3727364, “Resorcinol n-aryl amide compounds, for use as pyruvate dehydrogenase kinase inhibitors” (2015).

The target in the first experiment is [Pyruvate dehydrogenase (acetyl-transferring)] kinase isozyme 1, mitochondrial (Homo sapiens, UniProt Q15118). In words: Binding affinity to pyruvate dehydrogenase kinase 1 (unknown origin) incubated for 90 mins by VER-00160364 probe based fluorescence polarization assay.
[Pyruvate dehydrogenase (acetyl-transferring)] kinase isozyme 1, mitochondrial, sequence (Q15118 whole entry): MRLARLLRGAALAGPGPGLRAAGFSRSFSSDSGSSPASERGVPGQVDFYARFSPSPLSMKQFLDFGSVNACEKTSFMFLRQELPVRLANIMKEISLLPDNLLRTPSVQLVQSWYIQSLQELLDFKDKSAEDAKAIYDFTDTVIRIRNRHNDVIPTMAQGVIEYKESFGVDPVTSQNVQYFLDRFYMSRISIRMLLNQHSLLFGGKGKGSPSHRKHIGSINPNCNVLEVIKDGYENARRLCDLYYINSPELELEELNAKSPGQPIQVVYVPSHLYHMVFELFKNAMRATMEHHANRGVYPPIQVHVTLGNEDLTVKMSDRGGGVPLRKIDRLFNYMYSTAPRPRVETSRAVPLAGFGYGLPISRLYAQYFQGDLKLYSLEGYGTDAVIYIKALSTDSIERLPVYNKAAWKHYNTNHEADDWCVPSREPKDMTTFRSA
Settings: not given
Take `Cc1cc2ccccc2nc1-c1ccc(N(Cc2cc(F)cc(F)c2)C(=O)c2ccc(O)cc2O)cc1`: the IC50 is 1 µM.
The same measure, in the same setting: the value for `Cc1cc2ccccc2nc1-c1ccc(N(Cc2ccc(F)c(F)c2)C(=O)c2ccc(O)cc2O)cc1` was 0.1 µM; that for `Cc1cnc(Cl)nc1-c1ccc(N(Cc2ccc(CN3CCCC3)cc2)C(=O)c2ccc(O)cc2O)cc1` was 0.01 µM.
The compound `CN(C)C(=O)c1ccc(N(Cc2cccc3c2cnn3C)C(=O)c2ccc(O)cc2O)cc1` registered an IC50 of 0.1 µM.
On the same count and under the same terms, the value for `CN(Cc1ccc2nccnc2c1)C(=O)c1ccc(N(Cc2ccsc2)C(=O)c2ccc(O)cc2O)cc1` was 0.01 µM; that for `CCNCc1ccc(CN(C(=O)c2ccc(O)cc2O)c2ccc(-c3nc4ccccc4cc3C)cc2)cc1` was 0.1 µM.
Same read-out and setting: the value for `COc1cnc(Cl)nc1-c1ccc(N(Cc2cccnc2)C(=O)c2ccc(O)cc2O)cc1` was 0.01 µM; that for `Cc1cc(S(=O)(=O)NCc2cccs2)cnc1-c1ccc(N(Cc2cccnc2)C(=O)c2ccc(O)cc2O)cc1` was 0.01 µM.
Same read-out and setting: the value for `Cc1cnc(Cl)nc1-c1ccc(N(Cc2ccccc2)C(=O)c2cc(C(F)(F)F)c(O)cc2O)cc1` was 1 µM.
`Cc1cc(S(=O)(=O)NCc2ccccc2)cnc1-c1ccc(N(Cc2cccnc2)C(=O)c2ccc(O)cc2O)cc1` showed an IC50 of 0.01 µM.
Take `O=C(Nc1ccc(N(Cc2ccccc2)C(=O)c2ccc(O)cc2O)cc1)NC1CCCC1`: the IC50 came to 10 µM.
`O=C(Nc1ccc(N(Cc2ccccc2)C(=O)c2ccc(O)cc2O)cc1)c1ccccc1` yielded an IC50 of 1 µM.
The compound `CC(=O)Nc1ccc(N(Cc2ccccc2)C(=O)c2ccc(O)cc2O)cc1` gave an IC50 of 1 µM.
For the compound `O=C(Nc1ccc(N(Cc2ccccc2)C(=O)c2ccc(O)cc2O)cc1)c1cc2ccccc2s1`, the IC50 is 10 µM.
On the same count and under the same terms, the value for `O=C(c1ccc(O)cc1O)N(Cc1ccccc1)c1ccc(-c2nc(Cl)nn3cccc23)cc1` was 1 µM.
Still for that read-out and setting: the value for `CN(C)C(=O)c1ccc(N(CC2CCCC2)C(=O)c2ccc(O)cc2O)cc1` was 0.1 µM; that for `CCNC(=O)Nc1ccc(N(Cc2ccccc2)C(=O)c2ccc(O)cc2O)cc1` was 1 µM; that for `Cc1ccc(Cl)cc1-c1ccc(N(Cc2ccccc2)C(=O)c2ccc(O)cc2O)cc1` was 1 µM.
The same measure, in the same setting: the value for `O=C(Cc1ccccc1)Nc1ccc(N(Cc2ccccc2)C(=O)c2ccc(O)cc2O)cc1` was 1 µM; that for `CN(C)C(=O)c1ccc(N(Cc2csc3ccc(Cl)cc23)C(=O)c2cc(Cl)c(O)cc2O)cc1` was 1 µM; that for `CN(C)C(=O)c1ccc(N(Cc2ccncc2)C(=O)c2cc(Cl)c(O)cc2O)cc1` was 1 µM.
As for `Cc1noc(-c2ccccc2CN(C(=O)c2ccc(O)cc2O)c2ccc(-c3nc4ccccc4cc3C)cc2)n1`, the IC50 was found to be 0.01 µM.
Still for that read-out and setting: next, `Cc1cc2ccccc2nc1-c1ccc(N(Cc2ccc(F)cc2)C(=O)c2ccc(O)cc2O)cc1`: 0.1 µM; `Cc1cc2ccccc2nc1-c1ccc(N(Cc2cccc(F)c2)C(=O)c2ccc(O)cc2O)cc1`: 0.01 µM.
Still for that read-out and setting: the value for `COc1ccc(CN(C)C(=O)c2ccc(N(Cc3cc(C)no3)C(=O)c3cc(Cl)c(O)cc3O)cc2)cc1` was 0.1 µM.
Same read-out and setting: the value for `CN(C)C(=O)c1ccc(N(Cc2ccn(C)n2)C(=O)c2cc(Cl)c(O)cc2O)cc1` was 10 µM.
As to `Cc1cc(S(=O)(=O)NCc2cccnc2)cnc1-c1ccc(N(Cc2ccccc2)C(=O)c2cc(Cl)c(O)cc2O)cc1`, the IC50 was 0.1 µM.
Still for that read-out and setting: the value for `Cc1cc(S(=O)(=O)N2CC(F)(F)C2)cnc1-c1ccc(N(Cc2ccccc2)C(=O)c2ccc(O)cc2O)cc1` was 0.1 µM; that for `O=C(NCc1ccccc1)Nc1ccc(N(Cc2ccccc2)C(=O)c2ccc(O)cc2O)cc1` was 1 µM.
`CSc1ccc(CN(C(=O)c2ccc(O)cc2O)c2ccc(-c3nc4ccccc4cc3C)cc2)cc1` gave an IC50 of 0.1 µM.
The same measure, in the same setting: the value for `COC(=O)c1nc(-c2ccc(N(Cc3ccsc3)C(=O)c3ccc(O)cc3O)cc2)c2ccccc2n1` was 0.1 µM; that for `Cc1cc(S(=O)(=O)N2CCOCC2)cnc1-c1ccc(N(Cc2ccsc2)C(=O)c2ccc(O)cc2O)cc1` was 0.1 µM; that for `Cc1cc2ccccc2nc1-c1ccc(N(Cc2cccc3ccccc23)C(=O)c2ccc(O)cc2O)cc1` was 0.1 µM.
Regarding `O=C(Nc1ccc(N(Cc2ccccc2)C(=O)c2ccc(O)cc2O)cc1)NC1CCNCC1`, the IC50 was 10 µM.
`CN(C)C(=O)c1ccc(N(CC2CCNCC2)C(=O)c2cc(Cl)c(O)cc2O)cc1`: the IC50 came to 0.1 µM.
In turn, `COc1cnc(Cl)nc1-c1ccc(N(Cc2ccccc2)C(=O)c2cc(C)c(O)cc2O)cc1` returned a concentration for half-maximal inhibition (IC50) of 1 µM.
`CN(C)C(=O)c1ccc(N(Cc2ccccn2)C(=O)c2cc(Cl)c(O)cc2O)cc1` returned an IC50 of 0.1 µM.
On the same count and under the same terms, the value for `Cc1cc2ccccc2nc1-c1ccc(N(Cc2ccc(CN(C)C)cc2)C(=O)c2ccc(O)cc2O)cc1` was 0.1 µM.
Same read-out and setting: next, `CS(=O)(=O)Nc1ccc(N(Cc2ccccc2)C(=O)c2ccc(O)cc2O)cc1`: 1 µM.
The same measure, in the same setting: next, `COc1cnc(Cl)nc1-c1ccc(N(Cc2ccccc2)C(=O)c2cc(Cl)c(O)cc2O)cc1`: 0.1 µM; `CN(C)C(=O)c1ccc(N(CCN2CCCCC2)C(=O)c2cc(Cl)c(O)cc2O)cc1`: 0.1 µM.
As for `Cc1cc(C(=O)Nc2ccc(N(Cc3ccccc3)C(=O)c3ccc(O)cc3O)cc2)no1`, the IC50 turned out to be 10 µM.
For `O=C(c1ccc(O)cc1O)N(Cc1ccccc1)c1ccc(-c2nc(Cl)c3c(n2)CCSC3)cc1`, the IC50 is 0.01 µM.
`Cc1cc2ccccc2nc1-c1ccc(N(Cc2ccc(CN3CCCC3)cc2)C(=O)c2ccc(O)cc2O)cc1` showed an IC50 of 0.1 µM.
Still for that read-out and setting: the value for `CN(C)C(=O)c1ccc(N(Cc2c[nH]cn2)C(=O)c2cc(Cl)c(O)cc2O)cc1` was 1 µM; that for `CN(C)C(=O)c1ccc(N(Cc2nc3ccccc3[nH]2)C(=O)c2cc(Cl)c(O)cc2O)cc1` was 1 µM; that for `Cc1cc2ccccc2nc1-c1ccc(N(Cc2ccc(CN3CCOCC3)cc2)C(=O)c2ccc(O)cc2O)cc1` was 1 µM.
The same measure, in the same setting: the value for `Cc1cnc(Cl)nc1-c1ccc(N(Cc2cccnc2)C(=O)c2ccc(O)cc2O)cc1` was 0.01 µM; that for `Cc1cc2ccccc2nc1-c1ccc(N(Cc2ccc(Cl)cc2)C(=O)c2ccc(O)cc2O)cc1` was 1 µM.
In turn, `CN(Cc1ccc2ccccc2c1)C(=O)c1ccc(N(Cc2cccnc2)C(=O)c2ccc(O)cc2O)cc1` showed an IC50 of 0.01 µM.
As to `O=C(Nc1ccc(N(Cc2ccccc2)C(=O)c2ccc(O)cc2O)cc1)c1cc2ccccc2[nH]1`, the 50% inhibitory concentration (IC50) was found to be 10 µM.
The compound `O=C(Nc1ccc(N(Cc2ccccc2)C(=O)c2ccc(O)cc2O)cc1)Nc1cccnc1` yielded an IC50 of 1 µM.
Still for that read-out and setting: next, `CN(C)C(=O)c1ccc(N(Cc2ccn(C)n2)C(=O)c2ccc(O)cc2O)cc1`: 0.1 µM; `Cc1ccc(CN(C(=O)c2ccc(O)cc2O)c2ccc(-c3nc4ccccc4cc3C)cc2)cc1`: 0.01 µM; `CN(C)C(=O)c1ccc(N(CC2CCCC2)C(=O)c2cc(Cl)c(O)cc2O)cc1`: 0.1 µM.

The target in a further experiment is Pyruvate dehydrogenase kinase (Homo sapiens, UniProt Q15119+Q15120+Q16654+Q15118). The experiment in a line: Inhibition of pyruvate dehydrogenase kinase in human PC3 cells incubated for 90 mins by phospho(Ser293)E1alpha MSP ELISA method. The class given is cell-based. As to conditions: pc-3.
Compound `COc1cnc(Cl)nc1-c1ccc(N(Cc2cnsc2)C(=O)c2ccc(O)cc2O)cc1` yielded an IC50 of 1 µM.
Same read-out and setting: the value for `Cc1cnc(Cl)nc1-c1ccc(N(Cc2cccc(CN(C)C)c2)C(=O)c2ccc(O)cc2O)cc1` was 1 µM.
On the same count and under the same terms, the value for `Cc1cc(S(=O)(=O)NCc2cccs2)cnc1-c1ccc(N(Cc2cnsc2)C(=O)c2ccc(O)cc2O)cc1` was 1 µM; that for `CN(Cc1ccc2nccnc2c1)C(=O)c1ccc(N(Cc2ccsc2)C(=O)c2ccc(O)cc2O)cc1` was 1 µM; that for `Cc1cc(C(=O)N(Cc2ccccc2)c2ccc(C(=O)N(C)C)cc2)c(O)cc1O` was 1 µM.
Still for that read-out and setting: the value for `COc1cnc(Cl)nc1-c1ccc(N(Cc2cccnc2)C(=O)c2ccc(O)cc2O)cc1` was 1 µM; that for `Cc1cc(S(=O)(=O)NCc2cccs2)cnc1-c1ccc(N(Cc2cccnc2)C(=O)c2ccc(O)cc2O)cc1` was 1 µM; that for `Cc1cc(S(=O)(=O)NCc2ccccc2)cnc1-c1ccc(N(Cc2cccnc2)C(=O)c2ccc(O)cc2O)cc1` was 1 µM.
On to `COC1CCN(Cc2ccc(CN(C(=O)c3ccc(O)cc3O)c3ccc(-c4nc(Cl)ncc4C)cc3)cc2)C1` (stereo not given), for which the IC50 turned out to be 0.1 µM.
`Cc1cnc(Cl)nc1-c1ccc(N(Cc2cccc(Cl)c2)C(=O)c2ccc(O)cc2O)cc1` registered an IC50 of 0.1 µM.
Still for that read-out and setting: the value for `Cc1cc2ccccc2nc1-c1ccc(N(Cc2ccc(OCCN3CCCC3)cc2)C(=O)c2ccc(O)cc2O)cc1` was 1 µM; that for `Cc1cnc(Cl)nc1-c1ccc(N(Cc2cccc(OCCN3CCOCC3)c2)C(=O)c2ccc(O)cc2O)cc1` was 1 µM.
In turn, `COc1ccc(CN(C)C(=O)c2ccc(N(Cc3cc(C)no3)C(=O)c3cc(Cl)c(O)cc3O)cc2)cc1` registered an IC50 of 1 µM.
The same measure, in the same setting: next, `Cc1cnc(Cl)nc1-c1ccc(N(Cc2ccc(CN3CCC(F)(F)C3)cc2)C(=O)c2ccc(O)cc2O)cc1`: 0.1 µM.
As to `Cc1cc(S(=O)(=O)NCc2cccnc2)cnc1-c1ccc(N(Cc2ccccc2)C(=O)c2cc(Cl)c(O)cc2O)cc1`, the 50% inhibitory concentration (IC50) came out at 1 µM.
The same measure, in the same setting: the value for `Cc1cnc(Cl)nc1-c1ccc(N(Cc2ccc(CNC(=O)C3CCC3)cc2)C(=O)c2ccc(O)cc2O)cc1` was 0.1 µM; that for `Cc1cnc(Cl)nc1-c1ccc(N(Cc2cccc(OCCN(C)C)c2)C(=O)c2ccc(O)cc2O)cc1` was 1 µM.
For the compound `CCN(CC)CCOc1ccc(CN(C(=O)c2ccc(O)cc2O)c2ccc(-c3nc4ccccc4cc3C)cc2)cc1`, the concentration for half-maximal inhibition (IC50) came to 1 µM.
`Cc1cc(S(=O)(=O)N2CC(F)(F)C2)cnc1-c1ccc(N(Cc2ccccc2)C(=O)c2ccc(O)cc2O)cc1` displayed a half-inhibitory concentration (IC50) of 10 µM.
The compound `CCc1cnc(C)nc1-c1ccc(N(Cc2ccsc2)C(=O)c2ccc(O)cc2O)cc1` yielded an IC50 of 1 µM.
On the same count and under the same terms, the value for `Cc1cnc(Cl)nc1-c1ccc(N(Cc2ccc(CNC(=O)[C@H](C)NC(=O)OCc3ccccc3)cc2)C(=O)c2ccc(O)cc2O)cc1` was 0.1 µM.
Still for that read-out and setting: next, `COC(=O)c1nc(-c2ccc(N(Cc3ccsc3)C(=O)c3ccc(O)cc3O)cc2)c2ccccc2n1`: 1 µM; `Cc1cc(S(=O)(=O)N2CCOCC2)cnc1-c1ccc(N(Cc2ccsc2)C(=O)c2ccc(O)cc2O)cc1`: 1 µM; `Cc1cnc(Cl)nc1-c1ccc(N(Cc2cccc(CN3CCCCC3)c2)C(=O)c2ccc(O)cc2O)cc1`: 1 µM.
On the same count and under the same terms, next, `COc1cnc(Cl)nc1-c1ccc(N(Cc2ccccc2)C(=O)c2cc(Cl)c(O)cc2O)cc1`: 0.1 µM; `Cc1cc(C(=O)N(Cc2ccccc2)c2ccc(C(=O)N(C)Cc3ccc4nccnc4c3)cc2)c(O)cc1O`: 1 µM.
In turn, `Cc1cnc(Cl)nc1-c1ccc(N(Cc2ccc(CNC(=O)c3cccs3)cc2)C(=O)c2ccc(O)cc2O)cc1` showed an IC50 of 0.1 µM.
Same read-out and setting: the value for `Cc1cc(S(=O)(=O)NCc2ccccn2)cnc1-c1ccc(N(Cc2ccsc2)C(=O)c2cc(Cl)c(O)cc2O)cc1` was 1 µM; that for `Cc1cnc(Cl)nc1-c1ccc(N(Cc2cccnc2)C(=O)c2ccc(O)cc2O)cc1` was 1 µM.
`CN(Cc1ccc2ccccc2c1)C(=O)c1ccc(N(Cc2cccnc2)C(=O)c2ccc(O)cc2O)cc1` had an IC50 of 1 µM.
